The nature of data set [1]: Half life in human infected with HIV 20 to 40 mg, po for 7 days. It is filed as ADME, organism-based. To be noted: in vivo.
A short description of data set [2]: Half life in human Plasma. Type of data set: ADME, cell-free.
A short description of data set [3]: Antitumour activity in human FLT3 positive AML patient assessed as increase in survival time at 50 mg, po bid for 14 days co-treated with CTX relative to control. Type of data set: functional.

Some results are limits rather than exact numbers.

Broadly, the half-life is how long it takes for the measured level to halve. A lower half-life goes with fast loss. In turn, `N#Cc1cc(Cl)cc(Oc2c(Br)ccc(CC(=O)Nc3ccc(S(N)(=O)=O)cc3Cl)c2F)c1` [DEPULFAVIRINE] had a half-life in data set [1] greater than 120 h.

In data set [2], `Cc1cccc(C)c1N(CC(=O)Nc1ccc(-c2ncon2)cc1)C(=O)C1CCS(=O)(=O)CC1` [AMENAMEVIR] gave a half-life of 8 h.

Take `CCC(=O)[N-]S(=O)(=O)c1ccc(NC(=O)Cc2ccc(Br)c(Oc3cc(Cl)cc(C#N)c3)c2F)c(Cl)c1.[Na+]` [ELSULFAVIRINE SODIUM]: the half-life in data set [1] is 2 h.

Regarding `CO[C@@H]1[C@H](N(C)C(=O)c2ccccc2)C[C@H]2O[C@]1(C)n1c3ccccc3c3c4c(c5c6ccccc6n2c5c31)C(=O)NC4` [MIDOSTAURIN], the Activity in data set [3] was determined as 80%.

These data come from ChEMBL document CHEMBL4354798, “Synthetic Approaches to the New Drugs Approved During 2017” (J Med Chem, 2019).
